From US10766912B2 (priority 2017, dated 2020)

Columns and labels:
[1] = tested on: HCV GT1a wild-type replicon; assay: Assay Example 1: activity against HCV GT1a wild-type replicon; assay type: cell-based; details: Hepatitis C virus, 72 h, Huh 7 cells, 3 days, luciferase
Protocol: (§1) Cells: Huh 7 cell line and HCV GT1b/3a and GT1b/6a NS5A chimeric replicons and GT1b and GT1a wild-type replicon RNA.
(§2) Treatment of Compound: According to the assay final concentrations of the compounds in Table 2, DMSO stock solutions of the compounds were diluted and then added to a 96-well assay plate. The final concentration of DMSO was 0.5%.
(§3) The preparation of cells: After replicon plasmid DNA was linearized with a corresponding restriction enzyme, the DNA was transcribed into RNA by using T7RNA polymerase. Replicon RNA prepared by transcription in vitro was transfected into Huh-7 cells by electroporation. Transfected cells were seeded at a density of 10,000 cells per well into the 96-well assay plate containing the diluted compounds, and then the plate was placed in a 37° C. incubator with 5% CO2 and cultured for 3 days.
(§4) Drug activity assay: Luminescence signal value (RLU) was detected with Envision within 15 minutes using the luciferase assay reagent Britelite plus, and the original data (RLU) was used for the calculation of the activity of the compounds.
The activity of the compounds was calculated by using the equation below: Inhibition %=(ZPE−CPD)/(ZPE−HPE)×100%*
(§5) The cell viability percentages (Viability %) and the inhibition percentages (Inhibition %) were imported into GraphPad Prism software, respectively, and curves were fitted by using nonlinear regression method to obtain the corresponding curves of the compounds, and the cytotoxicity (CC50) thereof and inhibitory activity (EC50) values against the HCV replicon thereof.

[2] = in vitro; assay type: cell-based; details: human; Huh 7 cells with GT1b wild-type replicon, 3 days, CellTiter-Fluor
Protocol: as §1, §2, §3
Cell viability assay: A cell growth fluorescent titration detection reagent CellTiter-Fluor was added to the 96-well plate of the GT1b wild-type replicon. After the cells were cultured for 1 hour in a 37° C. incubator with 5% CO2, the fluorescence signal value (RFU) was detected by Envision, and the original data (RFU) was used for the calculation of the cytotoxicity of the compounds.
The cytotoxicity of the compounds was calculated by using the equation below: Cell Viability %=(CPD−HPE)/(ZPE−HPE)×100%*
as §5

[3] = tested on: HCV GT1b/5a NS5A chimeric replicon; assay: Assay Example 2: activity against GT1b/5a NS5A chimeric replicon; assay type: cell-based; details: Hepatitis C virus, Huh-7, 72 h, read-out: EC50 Value GT1b/5a-NS5A-wt
Protocol: Cells: Huh-7 cells are liver cancer cell strains (from AppTec, USA), HCV GT1a and GT1b wild type (wt) replicons, GT1b/3a, GT1b/4a, GT1b/5a and GT1b/6a NS5A chimeric replicons.
Treatment of Compound: According to the assay final concentrations of the compounds in Table 5, DMSO stock solutions of the compounds were diluted and then added to a 96-well assay plate. The final concentration of DMSO was 0.5%.
as §3, with “T7 RNA” for “T7RNA”, “then” for “then the plate was”
as §4
The cytotoxicity of the compounds was calculated by using the equation below: Cell Viability %=(CPD−HPE)/(ZPE−HPE)×100%* The activity of the compounds was calculated by using the equation below: Inhibition %=(ZPE−CPD)/(ZPE−HPE)×100%*
as §5, with “thereof and the inhibitory activity” for “thereof and inhibitory activity”

[4] = Assay Example 4: distribution in rat plasma and liver tissue; assay type: in vivo; details: 10 mg/kg intragastric; for Kp at 0.5 h / Kp at 3 h / Kp at 8 h: male, oral, liver/plasma, read-out: Ratio (L/P)
Protocol: Eighteen male rats were randomly divided into two groups of 9 rats each, fasted (free access to water) overnight, and then intragastrically administered with 10 mg/kg of Compound 1a and Compound 6b, respectively. The subject animals were sacrificed by bloodletting at 0.5 h, 3 h and 8 h after administration. About 1 mL of blood was taken, and anticoagulated with EDTA-K2. The blood samples were immediately placed in ice, and then transferred within 30 min to centrifuge and separate plasma at 4° C. and 4,000 rpm for 10 min. Meanwhile, the whole liver was taken out at the various time points, rinsed with ice-cold physiological saline, blotted dry, weighed, and prepared into a homogenate with physiological saline (W/V=1:5). All plasma and liver homogenates were collected and then immediately stored at −20° C. for testing.
The rats can be fed at 4 h after administration.
After being completely melted, all the samples were vortexed to mix evenly. 50 μL of the samples were pipetted into a 1.5 mL centrifuge tube respectively and then 300 μL of IS-D (20 ng/ml diazepam acetonitrile) solution was added to each sample (200 μL of acetonitrile was added to the blank sample). The samples were vortexed for 10 min and then centrifuged at 12,000 rpm and 4° C. for 10 min. After 80 μL of pure water was added to a 96-well plate, 80 μL of the supernatants were pipetted respectively from the centrifuge tubes to the 96-well plate, vortexed for 3 min, and then kept at 4° C. until LC-MS/MS injection analysis.

[5] = tested on: hepatitis C virus HCVcc (GT2a, JFH-1); assay: Assay Example 3: activity against infective hepatitis C virus HCVcc (GT2a, JFH-1); assay type: cell-based; details: Huh-7.5.1, 72 h, read-out: EC50 Value GT2a HCVcc
Protocol: Cells: Huh7.5.1 cells and hepatitis C virus HCVcc (GT2a, JFH-1) infection system.
Treatment of Compound: According to the assay final concentrations of the compounds in Table 6, DMSO stock solutions of the compounds were diluted and then added to a 96-well assay plate. The final concentration of DMSO was 0.5%.
Viral infection: Huh7.5.1 cells were seeded in a 96-well cell culture plate, and the cells were cultured overnight at 37° C. in an incubator with 5% CO2 for later use. The compound and the HCVcc virus solution (MOI=0.1) were simultaneously added to the cells, and the virus infection was cultured for 3 days. Parallel cytotoxicity assay was identical to the method for the inhibition of the virus but without viral infection.
Drug activity assay: The activity of hRLuc was detected by the addition of Renilla luciferase assay reagent. The original data (RLU) was used for the calculation of the activity of the compounds.
The activity of the compounds was calculated by using the equation below: Inhibition %=(CPD−VC)/(CC−VC)×100%*
as §5, with “(Cell Viability” for “(Viability”, “compound activity” for “inhibition”

Row | SMILES | EC50 [1] | CC50 [2] | EC50 [3] | Liver concentration ([4]; 0.5 h) | Plasma concentration ([4]; 0.5 h) | Liver concentration ([4]; 3 h) | Plasma concentration ([4]; 3 h) | Liver concentration ([4]; 8 h) | Plasma concentration ([4]; 8 h) | Kp at 0.5 h ([4]; 0.5 h) | Kp at 3 h ([4]; 3 h) | Kp at 8 h ([4]; 8 h) | EC50 [5]
1 | COC(=O)N[C@H](C(=O)N1CCC[C@H]1C(=O)Nc1ccc([C@@H]2CC[C@@H](c3ccc(NC(=O)[C@@H]4CCCN4C(=O)[C@@H](NC(=O)OC)[C@@H](C)OC)cc3)N2c2cc(F)c(N3CC[Si](C)(C)CC3)c(F)c2)cc1)[C@@H](C)OC [Compound 1a, Methyl ((2S,2′S,3R,3′R)-((2S,2′S)-(((((2S,5S)-1-(4-(4,4-dimethylazasilinan-1-yl)-3,5-difluorophenyl)pyrrolidin-2,5-diyl)bis(4,1-phenylene))bis(azanediyl))bis(carbonyl))bis(pyrrolidin-2,1-diyl))bis(3-methoxy-1-oxobutan-1,2-diyl))dicarbamate] | 7.7 pM | > 100 pM | 1.62 pM | 384 ± 121 | 54.7 ± 7.82 | 1711 ± 485 | 70.1 ± 20.6 | 1087 ± 822 | 59 ± 33.7 | 7.01 | 24.4 | 18.4 | –
2 | COC(=O)N[C@H](C(=O)N1CCC[C@H]1C(=O)Nc1ccc([C@H]2CC[C@H](c3ccc4nc([C@@H]5CCCN5C(=O)[C@@H](NC(=O)OC)[C@@H](C)OC)[nH]c4c3)N2c2cc(F)c(N3CC[Si](C)(C)CC3)c(F)c2)cc1)[C@@H](C)OC [Compound 6b] | 6.2 pM | > 100 pM | 4.32 pM | 212 ± 57.2 | 19.8 ± 8.31 | 495 ± 171 | 34.8 ± 14.7 | 77.5 ± 20.6 | 5.82 ± 0.99 | 10.7 | 14.2 | 13.3 | 1.37 pM
